Measured values taken from patent US4929445A, “Method for inhibiting Listeria monocytogenes using a bacteriocin” (Microlife Technics, Inc., priority 1988, dated 1990).

What was measured:
Listeria monocytogenes [1] = assay: Activity of PA-1 against Listeria monocytogenes in dressed Cottage cheese; assay type: cell-based
Method: Listeria monocytogenes was added to dressed Cottage cheese (pH 5.1) at a rate of 6.5×10^3 cfu/gram of dressed Cottage cheese. The bacteriocin powder to Example 1 (PA-1) was added to the Cottage cheese at a rate of 10 or 50 U (units)/g dressed Cottage cheese. The samples were mixed and incubated at 4° C. and aliquots were removed and plated onto McBride's Agar (Difco, Detroit, Mich.) and incubated at 32° C. and examined for growth of Listeria monocytogenes.

Listeria monocytogenes [2] = assay: Activity of PA-1 against Listeria monocytogenes in half and half cream; assay type: cell-based; settings: half and half cream pH 6.7, 4° C., LM 4.3 × 10^3 cells per ml, PA-1 50 U/ml
Method: Listeria monocytogenes was added to the cream (pH 6.7) at a rate of 4.3×10^3 cfu/ml of cream. The bacteriocin powder PA-1 was added to the cream at a rate of 10 or 50 U/ml cream. The samples were mixed and incubated at 4° C. and aliquots were removed and examined for growth of Listeria monocytogenes .

Listeria monocytogenes [3] = assay: Activity of PA-1 against Listeria monocytogenes in cheese sauce; assay type: cell-based; settings: cheese sauce pH 5.25, 4° C., LM 5.3 × 10^3 cells per gram
Method: Listeria monocytogenes was added to the cheese sauce (pH 5.25) at a rate of 5.3×10^3 cfu/g of cheese sauce. The bacteriocin powder PA-1 was added to the cheese sauce at a rate of 10 or 50 U/g of sauce. The samples were mixed and incubated at 4° C. and aliquots were removed and examined for growth of Listeria monocytogenes.

Listeria monocytogenes [4] = assay: Effect of PA-1 powder on an exponential culture (turbidity at 660 nm); assay type: cell-based; settings: 200 U/ml and 500 U/ml added after 3.75 hours, APT broth, 32° C.
Method: The PA-1 powder was added to a L. monocytogenes culture at 200 U(units)/ml or 500 U/ml and turbidity (which is an indicator of the number of cells) was monitored over time at 660 nanometers. The symbols used are , control (no PA-1 added); .circle., 200 U/ml PA-1; .quadrature., 500 U/ml PA-1.
Sterile PA-1 bacteriocin powder was added to an exponential culture of Listeria monocytogenes at a rate of 200 U/ml of broth and 500 U/ml of broth. Listeria monocytogenes was grown in APT broth at 32° C. Absorbance was followed over time at 660 nm.

[5] = tested on: Listeria monocytogenes LM01; assay: MIC and MBC by two-fold broth dilution; assay type: cell-based; settings: APT broth, 24 hours at 32° C.
Method: Bacteriocin PA-1 powder was dissolved in APT broth and two-fold serially diluted to concentrations ranging from 1000 U/ml to 2.0 U/ml. Approximately 1×10^3 Listeria monocytogenes/ml were added to each of the tubes which then were incubated for 24 hours at 32° C. The MIC value was the lowest concentration tube displaying no visible turbidity.

[6] = tested on: Pediococcus pentosaceus FBB63C; assay: MIC and MBC by two-fold broth dilution; assay type: cell-based; settings: APT broth, 24 hours at 32° C.
[7] = cited from earlier work
[8] = tested on: Lactococcus, Streptococcus, Staphylococcus, Micrococcus and Lactobacillus strains; settings: Lactococcus lactis, L. lactis subsp. diacetylactis, L. cremoris, Streptococcus thermophilus, Staphylococcus aureus, xylosus, epidermidis, carnosus, Micrococcus varians, sodonensis, Lactobacillus acidophilus, bulgaricus; cited from earlier work

## PA-1: bacteriocin of about 16,500 daltons produced by Pediococcus acidilactici NRRL-B-18050 (PAC 1.0); tested as lyophilized culture supernatant powder with nonfat dry milk
Listeria monocytogenes [1]; dressed Cottage cheese pH 5.1, 4° C., LM 6.5 × 10^3 cells per gram, PA-1 10 U/g
  Growth of Listeria at 24 h: 0 cfu/g
Listeria monocytogenes [1]; dressed Cottage cheese pH 5.1, 4° C., LM 6.5 × 10^3 cells per gram, PA-1 50 U/g
  Growth of Listeria at 24 h: 0 cfu/g
Listeria monocytogenes [1]; dressed Cottage cheese, 4° C., no LM added, PA-1 50 U/g
  Growth of Listeria at 24 h: 0 cfu/g
Listeria monocytogenes [2]
  Growth of Listeria at 24 h: 0 cfu/g
Listeria monocytogenes [3]; PA-1 10 U/g
  Growth of Listeria at 24 h: 4.0 × 10^2 cfu/g
Listeria monocytogenes [3]; PA-1 50 U/g
  Growth of Listeria at 24 h: 0 cfu/g
Listeria monocytogenes [4]
  Effect on exponential culture, absorbance at 660 nm: not only inhibitory but also bacteriocidal
[5]; no CFU on APT agar
  MBC: 7.8 U/ml
[5]; about 1×10^3 cells/ml, no visible turbidity
  MIC: < 2.0 U/ml
[6]; no CFU on APT agar
  MBC: 31.3 U/ml
[6]; no visible turbidity
  MIC: 7.8 U/ml
[7]; heating to 100° C. in water
  Effect of heating on the bacteriocin: unaffected
[7]; in vitro mixing with protease, papain or alpha-chymotrypsin
  Effect of proteolytic enzymes on the bacteriocin: inactivated
[7]; phospholipase C, lysozyme, Dnase and RNase
  Effect of other enzymes on the bacteriocin: unaffected
[8]
  Inhibitory activity against other gram positive bacteria: No activity was found
